The values below come from ChEMBL document CHEMBL1201862, “PubChem BioAssay data set” (2004).

Some test systems named below: UACC-62; SNB-19; SF-295; IGROV-1; Malme-3M; OVCAR-5; HCT-15; SR; UACC-257; HOP-62; HT-29; A549; OVCAR-3; OVCAR-4; SK-MEL-28; SN12C; 786-0; U-251; HL-60.
Assay in all cases: inhibition of tumour cell growth, NCI panel, 48 h

Structures are written as SMILES.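 These data come from cells grown in 96-well plates and exposed to compound for 48 hours at five concentrations. Abbreviation: GI50, concentration required for 50% inhibition of growth.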 Active and inactive are the calls of the source. No stated cut-off is given here; in the data, active = GI50 up to about 1.1 µM and inactive = higher. Bounds are passed on as bounds.

`O=C1/C(=C/c2ccccc2)CCCC/C1=C\c1ccccc1`: the GI50 with UACC-62 is > 100 µM (inactive); in the test on SNB-19, > 100 µM (inactive); in the test with SF-295, 72.3 µM (inactive); in the test on IGROV-1, > 100 µM (inactive); in the test on Malme-3M, 36.2 µM (inactive); in the test with OVCAR-5, 29 µM (inactive). In addition, the GI50 in the test with HCT-15 was 32.9 µM; in the test with SR, 12.8 µM (inactive); in the test on UACC-257 it was 41.2 µM (inactive); in the test with HOP-62, > 100 µM (inactive); with HT-29, 16.2 µM (inactive); with A549 it was 41.7 µM (inactive). Further, the GI50 was > 100 µM (inactive) in the test with OVCAR-3; 75 µM (inactive) with OVCAR-4; > 100 µM (inactive) with SK-MEL-28; > 100 µM (inactive) with SN12C; 65.8 µM (inactive) in the test on 786-0; 62.2 µM (inactive) in the test with U-251.
In the case of `COC1C=COC2(C)Oc3c(C)c(O)c4c(O)c(c(/C=N/N5CCN(N)CC5)c(O)c4c3C2=O)NC(=O)C(C)=CC=CC(C)C(O)C(C)C(O)C(C)C(OC(C)=O)C1C` (centres undefined), the GI50 in the test with UACC-62 was > 100 µM (inactive); in the test with SNB-19, > 100 µM (inactive); in the test with SF-295, 84.3 µM (inactive); in the test on HL-60 it was 35.2 µM (inactive); in the test on IGROV-1, > 100 µM (inactive); with Malme-3M it was > 100 µM (inactive). In addition, the GI50 in the test on OVCAR-5 is > 100 µM (inactive); in the test with HCT-15, 80.7 µM; in the test on SR it was 34.1 µM (inactive); in the test on UACC-257 it was > 100 µM (inactive); with HOP-62 it was > 100 µM (inactive); with HT-29, 38.4 µM (inactive). Further, the GI50 with A549 is > 100 µM (inactive); in the test with OVCAR-4, 70.5 µM (inactive); with SK-MEL-28, 34.4 µM (inactive); in the test on SN12C, > 100 µM (inactive); in the test with 786-0, > 100 µM (inactive); in the test with U-251, > 100 µM (inactive).
As for `O=C1C(=O)N(c2cc(Cl)ccc2Cl)C(=O)C(=O)C1c1nc2ccccc2s1`, the GI50 in the test with UACC-62, with SNB-19, with SF-295, with HL-60, with IGROV-1 and in the test with Malme-3M was > 100 µM (inactive) in each case. In addition, the GI50 is > 100 µM (inactive) in the test with OVCAR-5; greater than 100 µM in the test on HCT-15; 98.2 µM (inactive) with UACC-257; > 100 µM (inactive) in the test with HOP-62; > 100 µM (inactive) in the test with HT-29; > 100 µM (inactive) in the test with A549. Further, the GI50 in the test with OVCAR-3, in the test on OVCAR-4, in the test on SK-MEL-28, in the test with SN12C, with 786-0 and in the test with U-251 was > 100 µM (inactive) in each case.
On to `CCCCN/C(=N\C#N)N(Cc1ccccc1)Cc1ccccc1`, for which the GI50 was 15.4 µM (inactive) in the test with UACC-62; 35.7 µM (inactive) with SNB-19; 23.4 µM (inactive) with SF-295; 18.9 µM (inactive) in the test with HL-60; 22.2 µM (inactive) with IGROV-1; 37.2 µM (inactive) in the test with Malme-3M. In addition, the GI50 with OVCAR-5 was 23.5 µM (inactive); in the test on HCT-15, 16.3 µM; in the test on UACC-257, 20.5 µM (inactive); in the test with HOP-62, 26.6 µM (inactive); in the test with HT-29, 14.7 µM (inactive); in the test on A549 it was 37.2 µM (inactive). Also, the GI50 in the test on OVCAR-3 was 23.8 µM (inactive); with OVCAR-4, 27.3 µM (inactive); with SK-MEL-28 it was 34.2 µM (inactive); in the test on SN12C it was 27.7 µM (inactive); in the test with 786-0, 29.9 µM (inactive); in the test with U-251, 28.5 µM (inactive).
For the molecule `CC(C)(C)C(=O)/C=C/c1cccc(Oc2ccccc2)c1`, the GI50 with SNB-19 was 15.5 µM (inactive); with SF-295, 11.8 µM (inactive); with IGROV-1 it was 28.2 µM (inactive); in the test with Malme-3M it was 18.8 µM (inactive); in the test on OVCAR-5, 18.4 µM (inactive); in the test on HCT-15 it was 19.4 µM. The GI50 in the test with SR was 4.2 µM (inactive); in the test on UACC-257, 14 µM (inactive); in the test on HOP-62, 45 µM (inactive); with HT-29 it was 9.12 µM (inactive); in the test with A549, 21.1 µM (inactive); in the test with SK-MEL-28 it was 16.4 µM (inactive). In addition, the GI50 is 13.2 µM (inactive) in the test with SN12C, 16.7 µM (inactive) in the test with 786-0 and 11.3 µM (inactive) in the test with U-251.
Turning to `CN(C)CCCOc1ccc(/C=C2/CCC/C(=C/c3ccc(OCCCN(C)C)cc3)C2=O)cc1`, the GI50 in the test with UACC-62 was 1.91 µM (inactive); with SNB-19, 2.08 µM (inactive); with SF-295, 1.9 µM (inactive); in the test on HL-60 it was 1.97 µM (inactive); in the test with IGROV-1, 2.72 µM (inactive); with Malme-3M it was 1.78 µM (inactive). Moreover, the GI50 in the test on OVCAR-5 was 0.239 µM (active); in the test with HCT-15, 0.995 µM; in the test on UACC-257, 2.03 µM (inactive); in the test with HOP-62, 1.82 µM (inactive); with HT-29 it was 0.442 µM (active); with A549, 3.3 µM (inactive). Moreover, the GI50 in the test with OVCAR-3 was 2.26 µM (inactive); with OVCAR-4, 2.31 µM (inactive); in the test on SK-MEL-28, 1.79 µM (inactive); in the test on SN12C, 1.39 µM (inactive); in the test with 786-0 it was 1.3 µM (inactive); in the test on U-251 it was 0.918 µM (active).
With `CC1(C)OC(=O)C(c2cccs2)C(=O)O1`, the GI50 is > 100 µM (inactive) in the test with UACC-62; > 100 µM (inactive) in the test with SNB-19; > 100 µM (inactive) with SF-295; > 100 µM (inactive) in the test with Malme-3M; > 100 µM (inactive) with OVCAR-5; greater than 100 µM in the test on HCT-15. Also, the GI50 with SR, in the test with UACC-257, in the test with HOP-62, with HT-29, in the test with A549 and in the test on OVCAR-3 was > 100 µM (inactive) throughout. For the same molecule, the GI50 in the test on OVCAR-4, with SK-MEL-28, with SN12C, with 786-0 and in the test with U-251 was > 100 µM (inactive) each time.
As for `COC1[C@@H](OC(C)=O)[C@@H](NC(=O)C(Cl)(Cl)Cl)C(I)[C@@H](N2C(=O)c3ccccc3C2=O)[C@H]1OC` (some centres undefined), the GI50 in the test with UACC-62 was > 100 µM (inactive); in the test on SNB-19 it was > 100 µM (inactive); with SF-295, 36.6 µM (inactive); in the test with HL-60 it was > 100 µM (inactive); in the test on IGROV-1 it was > 100 µM (inactive); in the test on OVCAR-5 it was > 100 µM (inactive). For the same molecule, the GI50 with HCT-15 is greater than 100 µM; with SR it was > 100 µM (inactive); in the test with UACC-257, > 100 µM (inactive); in the test on HOP-62, > 100 µM (inactive); in the test with HT-29, > 100 µM (inactive); in the test on A549 it was > 100 µM (inactive). Also, the GI50 is 72.3 µM (inactive) with OVCAR-4; > 100 µM (inactive) with SK-MEL-28; > 100 µM (inactive) with SN12C; > 100 µM (inactive) with 786-0; > 100 µM (inactive) with U-251.
